Data as given in US10508118B2, “Pyrimidopyrrole compounds, method for preparing the same, pharmaceutical compositions comprising the same and uses thereof” (Xiamen University, priority 2015, dated 2019).
Like-named read-outs stand apart in the source and are kept apart here.

Experiments:
Format in all cases: cell-based
[1] = biological target: T1, EML4-ALK-BaF3 (Homo sapiens, UniProt Q9UM73); assay: Growth inhibition of EML4-ALK transformed BaF3 cells (MTS); conditions: for IC50: EML4-ALK-BaF3 cells, 48 hours, MTS
T1 construct: expressed in transfected cells; host or cells: Ba/F3 cells; the other entry of the earlier key: EML4 (Q9HC35, Echinoderm microtubule-associated protein-like 4)
Protocol: (§1) If compounds can inhibit the activity of ALK kinase or the activity of ALK signaling pathway, they can inhibit the growth of ALK transformed Ba/F3 cells. […] The broad-spectrum toxicity of compounds can be evaluated by determining the effect of the compounds on the growth of wild type BaF3 cells.
(§2) 1) Medium: DMEM (Dulbecco's modified eagle medium) or RPMI1640 (containing 10% fetal bovine serum, 100 μg/mL ampicillin, 100 μg/mL streptomycin).)
(§3) Reagents: MTS solution (2 mg/mL MTS (3-(4,5-dimethylthiazol-2-yl)-5-(3-carboxymethoxyphenyl)-2-(4-sulfophenyl)-2H-tetrazolium, inner salt); 100 μg/mL PES ([…])).
(§4) 3) Test of compound: Transformed Ba/F3 cells (EML4-ALK-BaF3, EML4-ALK(L1196M)-BaF3, NPM-ALK-BaF3) (2×10^4/well) were distributed into 96-well plates, with volume of cell sap of 90 μL, 10 μL of compounds in gradient concentration (the highest concentration 10 was μM, followed by 1/3 step by step dilution, a total of 8 concentrations were set, the system contained 0.1% DMSO (dimethyl sulfoxide)). The cell plates mixed with compounds were cultured in a cell incubator (37° C.; 5% CO2) for 48 hours, and the added 20 μL of MTS reaction solution, mixed and incubated in cell incubator (37° C.; 5% CO2) for 1-4 hours. The OD value at a wavelength of 490 nm was measured using eliasa (VARIOSKAN FLASH, Thermo). Three parallels were set up for each group, with a final concentration of 0.1% DMSO as negative control, and with medium without cells and compounds as blank control.
(§5) 4) Calculation of IC50 value: the semi inhibitory concentration of the compound acting on the cells was calculated using GradPad Prism 5 software according to the cell inhibitory rate measured.

[2] = biological target: T2, EML4-ALK (L1196M)-BaF3 (Homo sapiens, UniProt Q9UM73, L1196M); assay: Growth inhibition of EML4-ALK (L1196M) transformed BaF3 cells (MTS); conditions: 48 hours
T2 construct: expressed in transfected cells; host or cells: Ba/F3 cells; the other entry of the earlier key: EML4 (Q9HC35, Echinoderm microtubule-associated protein-like 4)
Protocol: as §1, §2, §3, §4, §5

[3] = biological target: T3, NPM-ALK-BaF3 (Homo sapiens, UniProt Q9UM73); assay: Growth inhibition of NPM-ALK transformed BaF3 cells (MTS); conditions: 48 hours
T3 construct: expressed in transfected cells; host or cells: Ba/F3 cells; the other entry of the earlier key: NPM1 (P06748, Nucleophosmin)
Protocol: (§6) The activity of compounds against ALK kinase was evaluated by inhibiting the growth of cellular ALK kinase EML4-ALK-BaF3, EML4-ALK (L1196M)-BaF3, NPM-ALK-BaF3, and wild type BaF3 (Proc. Natl. Acad. Sci. USA., 2006, 103, 3153-8.) The growth of cellular ALK kinase EML4-ALK-BaF3, EML4-ALK(L1196M)-BaF3, and NPM-ALK-BaF3 depends on their kinase activity. If compounds can inhibit the activity of ALK kinase or the activity of ALK signaling pathway, they can inhibit the growth of ALK transformed Ba/F3 cells. […] The broad-spectrum toxicity of compounds can be evaluated by determining the effect of the compounds on the growth of wild type BaF3 cells.
as §2, §3
as §4, with “control. The inhibition rate of cell growth was calculated by the following formula: Cell inhibition rate %=1−(OD experimental group−OD blank group)/(OD negative group−OD blank group)*100%” for “control.”
as §5

[4] = system: wild type BaF3; assay: Growth inhibition of wild type BaF3 cells (broad-spectrum toxicity); conditions: Mus musculus, BaF3, 48 h, MTS
Protocol: as §6, §2, §3
as §4, with “control. The inhibition rate of cell growth was calculated by the following formula: Cell inhibition rate %=1−(OD experimental group−OD blank group)/(OD negative group−OD blank group)*100%” for “control.”
as §5

[5] = Table 11, read-out: EML4-ALK (L1196M) (IC50 nM)
[6] = Table 12, read-out: L1196M (IC50 nM)

SMILES	IC50 ([1]; Table 11) [nM]	IC50 [2, 5] [nM]	IC50 ([3]; Table 11) [nM]	IC50 ([4]; Table 11) [nM]	targeting selectivity ([1]; ratio of IC50 between wild-type BaF3 and ALK transformed BaF3 cells)	IC50 ([1]; Table 12) [nM]	IC50 [2, 6] [nM]	IC50 ([3]; Table 12) [nM]	IC50 ([4]; Table 12) [nM]
COC(=O)c1ccccc1Nc1nc(Nc2ccc(N3CCC(O)CC3)cc2OC(C)C)nc2cc[nH]c12 [IG-9]	> 10000	> 10000	> 10000	> 10000	–	–	–	–	–
CCOc1cc(N2CCC(O)CC2)ccc1Nc1nc(Nc2ccccc2C(=O)OC)c2[nH]ccc2n1 [IG-10]	9800	> 10000	19600	> 10000	–	–	–	–	–
COC(=O)c1ccccc1Nc1nc(Nc2ccc(C(=O)N3CCC(N4CCN(C)CC4)CC3)cc2OC)nc2cc[nH]c12 [IG-12]	6500	4130	4080	~7740	–	–	–	–	–
COC(=O)c1ccccc1Nc1nc(Nc2ccc(N3CCN(C)CC3)cn2)nc2cc[nH]c12 [IG-13]	> 10000	> 10000	> 10000	> 10000	–	–	–	–	–
COC(=O)c1ccccc1Nc1nc(Nc2cc(C)c(C3CCN(C)CC3)cc2OC)nc2cc[nH]c12 [IG-14]	~1260	884	1390	~2550	–	–	–	–	–
COC(=O)c1ccccc1Nc1nc(Nc2ccc(N3CCOCC3)cc2OC)nc2cc[nH]c12 [IG-16]	1370	1390	1740	2350	–	–	–	–	–
COC(=O)c1ccccc1Nc1nc(Nc2ccc(C(=O)N3CCOCC3)cc2OC)nc2cc[nH]c12 [IG-17]	7610	~9460	7670	9390	–	–	–	–	–
COC(=O)c1ccccc1Nc1nc(Nc2ccc(N3CCC(O)CC3)nc2)nc2cc[nH]c12 [IG-18]	4680	4370	8760	> 10000	–	–	–	–	–
CCC(C)OC(=O)c1ccccc1Nc1nc(Nc2ccc(N3CCN(C)CC3)cc2OC)nc2cc[nH]c12 (stereo not drawn) [IH-1]	1120	916	1560	2070	–	–	–	–	–
CCC(C)OC(=O)c1ccccc1Nc1nc(Nc2ccc(N3CCC(O)CC3)cc2)nc2cc[nH]c12 (stereo not drawn) [IH-2]	> 10000	40400	> 10000	> 10000	–	–	–	–	–
CCC(C)OC(=O)c1ccccc1Nc1nc(Nc2ccc(N3CCC(N4CCN(C)CC4)CC3)cc2OC)nc2cc[nH]c12 (stereo not drawn) [IH-3]	~446	502	~859	~949	–	–	–	–	–
COC(=O)c1cccc(Nc2nc(Nc3ccc(N4CCN(C)CC4)cc3OC)nc3cc[nH]c23)c1 [II-1]	1490	~2630	1640	~2710	–	–	–	–	–
COC(=O)c1cccc(Nc2nc(Nc3ccc(N4CCC(N5CCN(C)CC5)CC4)cc3OC)nc3cc[nH]c23)c1 [II-2]	1810	~2560	~2600	~3030	–	–	–	–	–
COC(=O)c1cccc(Nc2nc(Nc3ccc(N4CCC(O)CC4)cc3)nc3cc[nH]c23)c1 [II-3]	7470	6160	4910	9610	–	–	–	–	–
COC(=O)c1cccc(Nc2nc(Nc3ccc(N4CCOCC4)cc3)nc3cc[nH]c23)c1 [II-5]	238	488	1290	1060	good targeting selectivity	–	–	–	–
COC(=O)c1cccc(Nc2nc(Nc3ccc(N4CCC(N5CCCC5)CC4)cc3OC)nc3cc[nH]c23)c1 [II-6]	4960	~7400	6720	~8220	–	–	–	–	–
COc1cc(N2CCN(C)CC2)ccc1Nc1nc(Nc2ccccc2SC)c2c(ccn2C)n1 [IIA-1]	–	–	–	–	–	~909	~2560	512	1550
COc1cc(N2CCC(N3CCN(C)CC3)CC2)ccc1Nc1nc(Nc2ccccc2SC)c2c(ccn2C)n1 [IIA-2]	–	–	–	–	–	~1110	1620	1400	~883
CSc1ccccc1Nc1nc(Nc2ccc(N3CCC(O)CC3)cc2)nc2ccn(C)c12 [IIA-3]	–	–	–	–	–	321	161	456	376
CSc1ccccc1Nc1nc(Nc2ccc(S(N)(=O)=O)cc2)nc2ccn(C)c12 [IIA-4]	–	–	–	–	–	1300	1320	2700	2570
CCOc1cc(C(=O)N2CCC(N3CCN(C)CC3)CC2)ccc1Nc1nc(Nc2ccccc2SC)c2c(ccn2C)n1 [IIA-5]	–	–	–	–	–	~877	~883	519	~336
CSc1ccccc1Nc1nc(Nc2ccc(N3CCN(C)CC3)cc2)nc2ccn(C)c12 [IIA-6]	–	–	–	–	–	644	978	536	1370
COc1cc(N2CCN(C)CC2)ccc1Nc1nc(Nc2ccccc2SC(C)C)c2c(ccn2C)n1 [IIB-1]	–	–	–	–	–	1720	~2800	~2510	1930
COc1cc(N2CCC(N3CCN(C)CC3)CC2)ccc1Nc1nc(Nc2ccccc2SC(C)C)c2c(ccn2C)n1 [IIB-2]	–	–	–	–	–	~949	~853	~940	606
CC(C)Sc1ccccc1Nc1nc(Nc2ccc(N3CCC(O)CC3)cc2)nc2ccn(C)c12 [IIB-3]	–	–	–	–	–	489	917	653	1040
CC(C)Sc1ccccc1Nc1nc(Nc2ccc(S(N)(=O)=O)cc2)nc2ccn(C)c12 [IIB-4]	–	–	–	–	–	3020	4210	4570	4880
